# Measured values published in article PMC12655351, “Synthesis and Anticancer Activity Evaluation of New 5-((5-Nitrofuran-2-yl)allylidene)-2-thioxo-4-thiazolidinones” (Pharmaceuticals, 2025).
# Tests used:
# K-562 [1] = conditions: K-562, 48 h
# A549/ATCC = test: NCI-60 SRB screen; conditions: for TGI: 48 h; for GI50: Homo sapiens, A549, 48 h
# CAKI-1 = test: cells; conditions: Homo sapiens, CAKI-1, 48 h
# UO-31 = test: cells; conditions: Homo sapiens, UO-31, 48 h; for CC50: read-out: LC50, UO-31, 48 h
# RPMI-8226 = test: cells; conditions: Homo sapiens, RPMI-8226, 48 h; for CC50: read-out: LC50
# NCI-H23 = test: cells; conditions: Homo sapiens, NCI-H23, 48 h; for CC50: read-out: LC50, NCI-H23, 48 h
# DU-145 = test: cells; conditions: Homo sapiens, DU-145, 48 h; for CC50: read-out: LC50, DU-145, 48 h
# OVCAR-8 = conditions: OVCAR-8, 48 h
# Leukemia = Leukemia subpanel
# NCI-H522 = test: NCI-60 SRB screen; conditions: NCI-H522, 48 h; for GI50 / CC50: Homo sapiens; for CC50: read-out: LC50, NCI-H522, 48 h
# SK-OV-3 [2] = test: cells; conditions: Homo sapiens, SK-OV-3, 48 h; for CC50: read-out: LC50, SK-OV-3, 48 h
# CNS cancer = CNS cancer subpanel
# SF-268 = conditions: SF-268, 48 h
# Renal Cancer = test: cells; conditions: Homo sapiens; for GI50: read-out: MG_MID GI50; for CC50: read-out: MG_MID LC50
# SK-OV-3 [3] = conditions: SK-OV-3, 48 h
# Melanoma = test: cells; conditions: Homo sapiens; for GI50: read-out: MG_MID GI50; for CC50: read-out: MG_MID LC50
# PC-3 = test: cells; conditions: Homo sapiens, PC-3, 48 h
# KM12 = test: NCI-60 SRB screen; conditions: KM12, 48 h; for GI50: Homo sapiens
# Ovarian cancer = test: cells; conditions: Homo sapiens; for GI50: read-out: MG_MID GI50; for CC50: read-out: MG_MID LC50
# HCT-116 = conditions: HCT-116, 48 h
# UACC-62 = test: NCI-60 SRB screen; conditions: UACC-62, 48 h; for GI50 / CC50: Homo sapiens; for CC50: read-out: LC50, UACC-62, 48 h
# MCF7 = test: NCI-60 SRB screen; conditions: MCF7, 48 h; for GI50: Homo sapiens
# COLO 205 = conditions: COLO 205, 48 h
# K-562 [4] = test: cells; conditions: Homo sapiens, K562, 48 h; for GI50: K-562, 48 h; for CC50: read-out: LC50
# MDA-MB-468 = test: NCI-60 SRB screen; conditions: MDA-MB-468, 48 h; for GI50 / CC50: Homo sapiens; for CC50: read-out: LC50, MDA-MB-468, 48 h
# BT-549 = test: cells; conditions: Homo sapiens, BT-549, 48 h; for CC50: read-out: LC50, BT-549, 48 h
# HCC-2998 = test: cells; conditions: Homo sapiens, HCC 2998, 48 h
# A498 = conditions: A498, 48 h
# IGROV1 = test: NCI-60 SRB screen; conditions: for GI50 / CC50: Homo sapiens, IGROV-1, 48 h; for GI50 / TGI: IGROV1, 48 h; for CC50: read-out: LC50, IGROV1, 48 h
# NCI-H266 = test: NCI-60 SRB screen; conditions: for GI50 / CC50: Homo sapiens, 48 h; for GI50 / TGI: NCI-H266, 48 h; for CC50: read-out: LC50, NCI-H266, 48 h
# OVCAR-4 = test: cells; conditions: Homo sapiens, OVCAR-4, 48 h; for CC50: read-out: LC50, OVCAR-4, 48 h
# SK-MEL-28 = conditions: for TGI: SK-MEL-28, 48 h
structure (smiles),measurement,setting,value
"CCCCC(C(=O)O)N1C(=O)/C(=C/C=C/c2ccc([N+](=O)[O-])o2)SC1=S (stereo not shown) [6b, 2-((Z)-5-((E)-3-(5-nitrofuran-2-yl)allylidene)-4-oxo-2-thioxothiazolidin-3-yl)hexanoic acid]",TGI,K-562 [1],10.5 µM
same,TGI,A549/ATCC,5.86 µM
same,GI50,A549/ATCC,2330 nM
same,GI50,CAKI-1,1670 nM
same,GI50,UO-31,1670 nM
same,CC50,UO-31,6.5 µM
same,GI50,RPMI-8226,1780 nM
same,CC50,RPMI-8226,> 100 µM
same,GI50,NCI-H23,1850 nM
same,CC50,NCI-H23,6.64 µM
same,GI50,DU-145,3350 nM
same,CC50,DU-145,32.9 µM
same,TGI,OVCAR-8,4.86 µM
same,MG_MID TGI,Leukemia,9.84 µM
same,GI50,NCI-H522,1740 nM
same,CC50,NCI-H522,6.78 µM
same,TGI,NCI-H522,3.43 µM
same,GI50,SK-OV-3 [2],6.27 µM
same,CC50,SK-OV-3 [2],46.7 µM
same,MG_MID TGI,CNS cancer,4.58 µM
same,TGI,SF-268,5.24 µM
same,GI50,Renal Cancer,2240 nM
same,CC50,Renal Cancer,17.7 µM
same,TGI,SK-OV-3 [3],19.4 µM
same,GI50,Melanoma,1780 nM
same,CC50,Melanoma,7.07 µM
same,GI50,PC-3,3050 nM
same,GI50,KM12,1630 nM
same,TGI,KM12,3.24 µM
same,GI50,Ovarian cancer,3.32 µM
same,CC50,Ovarian cancer,25.7 µM
same,TGI,HCT-116,4.05 µM
same,GI50,UACC-62,1380 nM
same,CC50,UACC-62,5.61 µM
same,TGI,UACC-62,2.78 µM
same,GI50,MCF7,1640 nM
same,TGI,MCF7,4.11 µM
same,TGI,COLO 205,3.66 µM
same,GI50,K-562 [4],2600 nM
same,CC50,K-562 [4],> 100 µM
same,GI50,MDA-MB-468,1630 nM
same,CC50,MDA-MB-468,6.09 µM
same,TGI,MDA-MB-468,3.15 µM
same,GI50,BT-549,1490 nM
same,CC50,BT-549,6.55 µM
same,GI50,HCC-2998,1830 nM
same,TGI,A498,8.28 µM
same,GI50,IGROV1,2160 nM
same,CC50,IGROV1,18 µM
same,TGI,IGROV1,4.86 µM
same,GI50,NCI-H266,2220 nM
same,CC50,NCI-H266,76.1 µM
same,TGI,NCI-H266,5.84 µM
same,GI50,OVCAR-4,6.12 µM
same,CC50,OVCAR-4,44.5 µM
same,TGI,SK-MEL-28,3.73 µM
"CC(C)C(C(=O)O)N1C(=O)/C(=C/C=C/c2ccc([N+](=O)[O-])o2)SC1=S (stereo not shown) [5b, 3-Methyl-2-((Z)-5-((E)-3-(5-nitrofuran-2-yl)allylidene)-4-oxo-2-thioxothiazolidin-3-yl)butanoic acid]",TGI,K-562 [1],2.86 µM
same,TGI,A549/ATCC,3.83 µM
same,GI50,A549/ATCC,1860 nM
same,GI50,CAKI-1,1170 nM
same,GI50,UO-31,1330 nM
same,CC50,UO-31,7.27 µM
same,GI50,RPMI-8226,350 nM
same,CC50,RPMI-8226,> 100 µM
same,GI50,NCI-H23,1750 nM
same,CC50,NCI-H23,6.63 µM
same,GI50,DU-145,1430 nM
same,CC50,DU-145,5.56 µM
same,TGI,OVCAR-8,4.78 µM
same,MG_MID TGI,Leukemia,3.77 µM
same,GI50,NCI-H522,1120 nM
same,CC50,NCI-H522,5.69 µM
same,TGI,NCI-H522,2.53 µM
same,GI50,SK-OV-3 [2],2.79 µM
same,CC50,SK-OV-3 [2],33.9 µM
same,MG_MID TGI,CNS cancer,2.79 µM
same,TGI,SF-268,3.57 µM
same,GI50,Renal Cancer,1540 nM
same,CC50,Renal Cancer,7.72 µM
same,TGI,SK-OV-3 [3],10.7 µM
same,GI50,Melanoma,1250 nM
same,CC50,Melanoma,5.59 µM
same,GI50,PC-3,1800 nM
same,GI50,KM12,1170 nM
same,TGI,KM12,2.57 µM
same,GI50,Ovarian cancer,1.92 µM
same,CC50,Ovarian cancer,17.4 µM
same,TGI,HCT-116,1.13 µM
same,GI50,UACC-62,780 nM
same,CC50,UACC-62,4.9 µM
same,TGI,UACC-62,2.16 µM
same,GI50,MCF7,430 nM
same,TGI,MCF7,1.83 µM
same,TGI,COLO 205,2.79 µM
same,GI50,K-562 [4],450 nM
same,CC50,K-562 [4],> 100 µM
same,GI50,MDA-MB-468,1370 nM
same,CC50,MDA-MB-468,6.16 µM
same,TGI,MDA-MB-468,2.90 µM
same,GI50,BT-549,750 nM
same,CC50,BT-549,5.13 µM
same,GI50,HCC-2998,1720 nM
same,TGI,A498,4.81 µM
same,GI50,IGROV1,1780 nM
same,CC50,IGROV1,6.57 µM
same,TGI,IGROV1,3.42 µM
same,GI50,NCI-H266,2400 nM
same,CC50,NCI-H266,88.8 µM
same,TGI,NCI-H266,7.65 µM
same,GI50,OVCAR-4,2.43 µM
same,CC50,OVCAR-4,26.3 µM
same,growth GP,"SK-MEL-28; SK-MEL-28, 10 μM, 48 h",-95.39%
same,TGI,SK-MEL-28,2.83 µM
"CCCC(C(=O)O)N1C(=O)/C(=C/C=C/c2ccc([N+](=O)[O-])o2)SC1=S (stereo not shown) [4b, 2-((Z)-5-((E)-3-(5-Nitrofuran-2-yl)allylidene)-4-oxo-2-thioxothiazolidin-3-yl)pentanoic acid]",TGI,K-562 [1],14.5 µM
same,TGI,A549/ATCC,5.40 µM
same,GI50,A549/ATCC,2220 nM
same,GI50,CAKI-1,1750 nM
same,GI50,UO-31,1630 nM
same,CC50,UO-31,6.78 µM
same,GI50,RPMI-8226,1790 nM
same,CC50,RPMI-8226,> 100 µM
same,GI50,NCI-H23,1970 nM
same,CC50,NCI-H23,8.57 µM
same,GI50,DU-145,2420 nM
same,CC50,DU-145,22.8 µM
same,TGI,OVCAR-8,4.64 µM
same,MG_MID TGI,Leukemia,9.43 µM
same,GI50,NCI-H522,1700 nM
same,CC50,NCI-H522,6.48 µM
same,TGI,NCI-H522,3.32 µM
same,GI50,SK-OV-3 [2],5.8 µM
same,CC50,SK-OV-3 [2],47.2 µM
same,MG_MID TGI,CNS cancer,4.46 µM
same,TGI,SF-268,4.45 µM
same,GI50,Renal Cancer,2250 nM
same,CC50,Renal Cancer,18.5 µM
same,TGI,SK-OV-3 [3],18.7 µM
same,GI50,Melanoma,1670 nM
same,CC50,Melanoma,7.32 µM
same,GI50,PC-3,2870 nM
same,GI50,KM12,1380 nM
same,TGI,KM12,2.78 µM
same,GI50,Ovarian cancer,3.12 µM
same,CC50,Ovarian cancer,23 µM
same,TGI,HCT-116,3.90 µM
same,GI50,UACC-62,1500 nM
same,CC50,UACC-62,5.9 µM
same,TGI,UACC-62,2.98 µM
same,GI50,MCF7,1600 nM
same,TGI,MCF7,3.70 µM
same,TGI,COLO 205,3.60 µM
same,GI50,K-562 [4],2770 nM
same,CC50,K-562 [4],> 100 µM
same,GI50,MDA-MB-468,1570 nM
same,CC50,MDA-MB-468,5.92 µM
same,TGI,MDA-MB-468,3.05 µM
same,GI50,BT-549,1670 nM
same,CC50,BT-549,6.77 µM
same,GI50,HCC-2998,1830 nM
same,TGI,A498,7.21 µM
same,GI50,IGROV1,1940 nM
same,CC50,IGROV1,7.75 µM
same,TGI,IGROV1,3.87 µM
same,GI50,NCI-H266,2620 nM
same,CC50,NCI-H266,78.9 µM
same,TGI,NCI-H266,7.83 µM
same,GI50,OVCAR-4,6.03 µM
same,CC50,OVCAR-4,44.3 µM
same,TGI,SK-MEL-28,3.51 µM
